Measurements as given in patent publication US10877035B2, “Advanced drug development and manufacturing” (ICAGEN, LLC, priority 2006, dated 2020).

Experiments:
COX-2 = biological target: T1, COX-2 (Canis lupus familiaris, UniProt Q8SPQ9); details: canine, relative to COX-1 column; cited from earlier work
T1 sequence (Q8SPQ9 18-604): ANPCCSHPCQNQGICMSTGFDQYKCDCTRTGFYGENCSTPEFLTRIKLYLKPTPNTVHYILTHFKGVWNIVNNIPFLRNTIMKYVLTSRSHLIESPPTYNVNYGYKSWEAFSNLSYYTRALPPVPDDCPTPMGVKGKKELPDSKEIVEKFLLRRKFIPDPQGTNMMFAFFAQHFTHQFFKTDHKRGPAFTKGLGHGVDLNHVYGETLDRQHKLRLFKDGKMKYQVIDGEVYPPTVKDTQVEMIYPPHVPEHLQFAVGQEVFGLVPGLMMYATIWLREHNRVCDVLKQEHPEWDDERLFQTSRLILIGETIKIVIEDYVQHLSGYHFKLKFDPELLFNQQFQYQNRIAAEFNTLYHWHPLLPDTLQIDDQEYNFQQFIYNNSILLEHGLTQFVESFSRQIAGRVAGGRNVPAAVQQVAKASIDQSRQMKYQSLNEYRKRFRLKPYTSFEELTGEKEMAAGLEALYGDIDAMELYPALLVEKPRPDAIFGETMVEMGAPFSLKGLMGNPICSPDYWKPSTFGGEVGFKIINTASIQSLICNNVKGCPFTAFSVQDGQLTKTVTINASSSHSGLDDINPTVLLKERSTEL

COX-1 = biological target: T2, COX-1 (Canis lupus familiaris, UniProt Q8HZR1); details: cited from earlier work
T2 sequence (Q8HZR1 28-603): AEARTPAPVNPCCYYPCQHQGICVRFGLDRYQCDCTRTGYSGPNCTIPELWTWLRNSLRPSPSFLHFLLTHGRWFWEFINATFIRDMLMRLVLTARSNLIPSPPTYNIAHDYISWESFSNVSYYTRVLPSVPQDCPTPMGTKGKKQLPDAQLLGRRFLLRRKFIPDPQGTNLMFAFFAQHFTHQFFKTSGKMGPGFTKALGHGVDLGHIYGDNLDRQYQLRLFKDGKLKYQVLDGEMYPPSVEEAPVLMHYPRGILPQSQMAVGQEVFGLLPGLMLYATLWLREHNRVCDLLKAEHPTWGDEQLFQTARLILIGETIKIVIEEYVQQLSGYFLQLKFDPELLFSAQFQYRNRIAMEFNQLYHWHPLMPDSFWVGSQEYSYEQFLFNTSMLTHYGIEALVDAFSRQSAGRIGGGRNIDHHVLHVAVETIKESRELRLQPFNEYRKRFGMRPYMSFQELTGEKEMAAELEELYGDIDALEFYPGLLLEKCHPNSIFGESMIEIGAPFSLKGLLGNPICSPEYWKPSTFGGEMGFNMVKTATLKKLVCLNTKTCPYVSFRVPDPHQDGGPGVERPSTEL

avidin = avidin (Gallus gallus, UniProt P02701); details: 200 micrograms avidin and 0.20 millimolar LPA, same filtering
Protocol: […] We diluted this sample to 0.75 ml in TRIS buffer (pH 8.0), centrifuged for 2 hours at 7000 g, and repeated this process twice.

tetrameric avidin [1] = biological target: T3, tetrameric avidin (Gallus gallus, UniProt P02701); details: previous studies; cited from earlier work
T3 construct: purchased Sigma-Aldrich

tetrameric avidin [2] = biological target: T3, tetrameric avidin; experiment: RPM (x-ray fluorescence) measurement of sulfur in avidin-biotin complex versus avidin; assay type: binding; details: 500 micrograms avidin, 0.20 millimolar biotin, pH 8.0, after ultrafiltration
Description: Previous studies have shown that the ratio of sulfur in avidin-biotin:avidin is 19.5:16, or 1.22, see Green N. Mex. Purification of Avidin. Meth Enzymol. 1970, XVIII(A):414-417. […] We treated an avidin control sample identically. We used RPM to measure the sulfur content of the avidin-biotin complex and the avidin. We confirmed that the amount of avidin in each sample was identical using bicinchoninic acid protein assay kit (Pierce). As predicted, the avidin-biotin complex contained 1.2 times the sulfur than the avidin alone as measured by RPM.

T3 sequence (P02701 25-152): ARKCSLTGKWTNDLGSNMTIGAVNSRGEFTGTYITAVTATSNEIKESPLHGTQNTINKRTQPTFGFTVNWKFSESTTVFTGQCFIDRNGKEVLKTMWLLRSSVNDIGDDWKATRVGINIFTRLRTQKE
Sequence of avidin (P02701 25-152): as above

## CC(C(=O)O)c1cccc(C(=O)c2ccccc2)c1 (stereo not drawn) [Ketoprofen]
COX-2
  selectivity data, COX-2: .6
COX-1; according to TABLE 3
  selectivity in favor of COX-1 versus COX-2: 1 to 0.6
COX-1; canine, relative to COX-2 column
  selectivity data, COX-1: 1

## leucine phosphonic acid [LPA]
avidin
  phosphorus observed in control samples: no phosphorus was observed

## O=C(O)CCCC[C@@H]1SC[C@@H]2NC(=O)N[C@@H]21 [biotin]
Tetrameric avidin [1]
  ratio of sulfur in avidin-biotin:avidin: 1.22
Tetrameric avidin [2]
  sulfur in avidin-biotin complex relative to avidin alone as measured by RPM: 1.2 times
